Data on ten compounds can be found in PubChem BioAssay (NCI).

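Interpolation was linear, between the two tested concentrations surrounding the appropriate level; five concentrations were tested over 48 hours in 96-well plates. TGI is the concentration that stops growth completely.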

Test systems include A498 renal; A549 NSCLC; ACHN renal; EKVX NSCLC; HCT-116 colon; KM12 colon; M14 melanoma; OVCAR-4 ovarian; OVCAR-8 ovarian; RXF 393 renal; SK-MEL-5 melanoma; UACC-257 melanoma; UO-31 renal; RPMI-8226 leukemia; SK-OV-3 ovarian.
What all share (assay): growth of human tumour cells (NCI), 48 h

As for `CCOC(=O)c1[nH]c(CN(C)Cc2[nH]c(C(=O)OCC)c(C)c2C(=O)OCc2ccccc2)c(C(=O)OCc2ccccc2)c1C`, the TGI in the experiment with A498 renal was 34.9 µM; in the experiment on A549 NSCLC it was 98.2 µM; in the experiment with ACHN renal, greater than 100 µM; in the experiment on EKVX NSCLC, 42.5 µM; in the experiment on HCT-116 colon, 38 µM; in the experiment with KM12 colon, 54.9 µM. For the same compound, the TGI with M14 melanoma was 29.1 µM; with OVCAR-4 ovarian, 32.1 µM; in the experiment on OVCAR-8 ovarian, greater than 100 µM; with RXF 393 renal, 22.3 µM; with SK-MEL-5 melanoma, 22.2 µM; in the experiment with UACC-257 melanoma, greater than 100 µM. Besides, the TGI with UO-31 renal is greater than 100 µM.
For the compound `CC1C=C[C@H](Sc2ccccc2)CC[C@@]1(C)O` (some centres undefined), the TGI in the experiment on A498 renal, in the experiment with A549 NSCLC, in the experiment on ACHN renal, with EKVX NSCLC, with HCT-116 colon and in the experiment on M14 melanoma was greater than 100 µM each time. The TGI in the experiment with OVCAR-8 ovarian, in the experiment on RPMI-8226 leukemia, with RXF 393 renal, with SK-MEL-5 melanoma, with SK-OV-3 ovarian and in the experiment on UACC-257 melanoma was greater than 100 µM throughout. Also, in the experiment on UO-31 renal, the TGI was greater than 100 µM.
For `CCCCCCCCCCCC(O)=C1C(=O)CC(O)CC1=O` (centres undefined), the TGI in the experiment on A549 NSCLC, in the experiment with ACHN renal, in the experiment with EKVX NSCLC, in the experiment with HCT-116 colon, in the experiment with KM12 colon and in the experiment on M14 melanoma was greater than 100 µM in each case. Further, the TGI in the experiment with OVCAR-4 ovarian, in the experiment with OVCAR-8 ovarian, in the experiment with RPMI-8226 leukemia, in the experiment on RXF 393 renal, with SK-MEL-5 melanoma and in the experiment with SK-OV-3 ovarian was greater than 100 µM throughout. The TGI with UACC-257 melanoma and in the experiment with UO-31 renal was greater than 100 µM in each case.
Turning to `CCC1(N=[N+]=[N-])C(=O)c2ccccc2N(c2ccccc2)C1=O` (centres undefined), the TGI with A498 renal, in the experiment on A549 NSCLC, with ACHN renal, in the experiment on EKVX NSCLC, in the experiment on HCT-116 colon and in the experiment on KM12 colon was greater than 100 µM throughout. Moreover, the TGI in the experiment with M14 melanoma, in the experiment with OVCAR-4 ovarian, in the experiment on OVCAR-8 ovarian, in the experiment with SK-MEL-5 melanoma, with SK-OV-3 ovarian and with UACC-257 melanoma was greater than 100 µM in each case. The compound further displayed a TGI in the experiment with UO-31 renal greater than 100 µM.
In the case of `CCCCNC(=O)CCN(C(=O)O)S(=O)(=O)c1ccc(NC(=O)c2ccccc2)cc1`, the TGI in the experiment on A498 renal, with A549 NSCLC, in the experiment on ACHN renal, in the experiment with EKVX NSCLC, in the experiment with HCT-116 colon and in the experiment with KM12 colon was greater than 100 µM throughout. The TGI in the experiment with M14 melanoma, with OVCAR-4 ovarian, in the experiment with OVCAR-8 ovarian, with RPMI-8226 leukemia, with SK-MEL-5 melanoma and with SK-OV-3 ovarian was greater than 100 µM throughout. Moreover, the TGI in the experiment on UACC-257 melanoma and in the experiment on UO-31 renal was greater than 100 µM in each case.
For `Brc1ccc2c(c1)C1C(CO2)C(c2ccccc2)=NN1c1ccccc1` (centres undefined), the TGI in the experiment with A498 renal, in the experiment on A549 NSCLC, in the experiment on ACHN renal, with EKVX NSCLC, in the experiment with HCT-116 colon and with KM12 colon was greater than 100 µM each time. Moreover, the TGI in the experiment with OVCAR-8 ovarian, in the experiment on RPMI-8226 leukemia, with RXF 393 renal, in the experiment with SK-OV-3 ovarian, with UACC-257 melanoma and in the experiment with UO-31 renal was greater than 100 µM in each case.
For the compound `COC(=O)NC(=O)c1cn(CCCOC(=O)CCCCCCCCC(=O)OCCCn2cc(C(=O)NC(=O)OC)c(=O)[nH]c2=O)c(=O)[nH]c1=O`, the TGI in the experiment with A498 renal, with A549 NSCLC, in the experiment with ACHN renal, in the experiment with EKVX NSCLC, with HCT-116 colon and in the experiment with KM12 colon was greater than 100 µM each time. In addition, the TGI with M14 melanoma is greater than 100 µM; in the experiment with OVCAR-4 ovarian, greater than 100 µM; with OVCAR-8 ovarian it was greater than 100 µM; with RPMI-8226 leukemia, greater than 100 µM; in the experiment with RXF 393 renal, 75 µM; with SK-MEL-5 melanoma, greater than 100 µM. The TGI in the experiment on UACC-257 melanoma and with UO-31 renal was greater than 100 µM each time.
Turning to `CSc1nc2c(c(O)c(C)c(=O)n2C2OCC(OC(C)=O)C(OC(C)=O)C2OC(C)=O)c(=O)n1C` (centres undefined), the TGI with A498 renal, with A549 NSCLC, with ACHN renal, with HCT-116 colon, in the experiment on KM12 colon and in the experiment with M14 melanoma was greater than 100 µM throughout. Further, the TGI with OVCAR-4 ovarian, in the experiment on OVCAR-8 ovarian, with RPMI-8226 leukemia, in the experiment with SK-MEL-5 melanoma, with SK-OV-3 ovarian and in the experiment with UACC-257 melanoma was greater than 100 µM throughout. The TGI with UO-31 renal is greater than 100 µM.
For `COc1ccc(N2C(=O)[C@@H]3[C@H](C2=O)c2[nH]c4ccccc4c2C2CCC(C(C)(C)C)C[C@@H]23)cc1` (some centres undefined), the TGI with A498 renal is 64 µM; with A549 NSCLC, greater than 80.3 µM; with ACHN renal, 87.6 µM; in the experiment on EKVX NSCLC, 81.4 µM; with HCT-116 colon, greater than 100 µM; in the experiment on KM12 colon, greater than 100 µM. Besides, the TGI is greater than 100 µM in the experiment on M14 melanoma; 42.2 µM in the experiment on OVCAR-8 ovarian; greater than 100 µM in the experiment on RPMI-8226 leukemia; 46 µM with RXF 393 renal; greater than 100 µM with SK-MEL-5 melanoma; 44.2 µM with SK-OV-3 ovarian. The TGI in the experiment with UACC-257 melanoma was greater than 100 µM; in the experiment with UO-31 renal it was greater than 78.4 µM.
As to `COC(=O)CCc1cccnc1/C=N/O`, the TGI with A498 renal, in the experiment on A549 NSCLC, in the experiment on ACHN renal, with EKVX NSCLC, in the experiment on HCT-116 colon and in the experiment with KM12 colon was greater than 100 µM each time. Also, the TGI in the experiment with M14 melanoma, in the experiment with OVCAR-4 ovarian, in the experiment on OVCAR-8 ovarian, with RXF 393 renal, in the experiment on SK-MEL-5 melanoma and with SK-OV-3 ovarian was greater than 100 µM in each case. Also, the TGI with UACC-257 melanoma and in the experiment with UO-31 renal was greater than 100 µM each time.
